# In US20260138961A1, “MODULATORS OF MITOCHONDRIAL DNA REPLICATION” (Pretzel Therapeutics, Inc., priority 2022, published 2026):
# Target: T1, POLγA:G848S (Homo sapiens, UniProt P54098, G848S)
# T1 sequence (P54098 1-1239 G848S): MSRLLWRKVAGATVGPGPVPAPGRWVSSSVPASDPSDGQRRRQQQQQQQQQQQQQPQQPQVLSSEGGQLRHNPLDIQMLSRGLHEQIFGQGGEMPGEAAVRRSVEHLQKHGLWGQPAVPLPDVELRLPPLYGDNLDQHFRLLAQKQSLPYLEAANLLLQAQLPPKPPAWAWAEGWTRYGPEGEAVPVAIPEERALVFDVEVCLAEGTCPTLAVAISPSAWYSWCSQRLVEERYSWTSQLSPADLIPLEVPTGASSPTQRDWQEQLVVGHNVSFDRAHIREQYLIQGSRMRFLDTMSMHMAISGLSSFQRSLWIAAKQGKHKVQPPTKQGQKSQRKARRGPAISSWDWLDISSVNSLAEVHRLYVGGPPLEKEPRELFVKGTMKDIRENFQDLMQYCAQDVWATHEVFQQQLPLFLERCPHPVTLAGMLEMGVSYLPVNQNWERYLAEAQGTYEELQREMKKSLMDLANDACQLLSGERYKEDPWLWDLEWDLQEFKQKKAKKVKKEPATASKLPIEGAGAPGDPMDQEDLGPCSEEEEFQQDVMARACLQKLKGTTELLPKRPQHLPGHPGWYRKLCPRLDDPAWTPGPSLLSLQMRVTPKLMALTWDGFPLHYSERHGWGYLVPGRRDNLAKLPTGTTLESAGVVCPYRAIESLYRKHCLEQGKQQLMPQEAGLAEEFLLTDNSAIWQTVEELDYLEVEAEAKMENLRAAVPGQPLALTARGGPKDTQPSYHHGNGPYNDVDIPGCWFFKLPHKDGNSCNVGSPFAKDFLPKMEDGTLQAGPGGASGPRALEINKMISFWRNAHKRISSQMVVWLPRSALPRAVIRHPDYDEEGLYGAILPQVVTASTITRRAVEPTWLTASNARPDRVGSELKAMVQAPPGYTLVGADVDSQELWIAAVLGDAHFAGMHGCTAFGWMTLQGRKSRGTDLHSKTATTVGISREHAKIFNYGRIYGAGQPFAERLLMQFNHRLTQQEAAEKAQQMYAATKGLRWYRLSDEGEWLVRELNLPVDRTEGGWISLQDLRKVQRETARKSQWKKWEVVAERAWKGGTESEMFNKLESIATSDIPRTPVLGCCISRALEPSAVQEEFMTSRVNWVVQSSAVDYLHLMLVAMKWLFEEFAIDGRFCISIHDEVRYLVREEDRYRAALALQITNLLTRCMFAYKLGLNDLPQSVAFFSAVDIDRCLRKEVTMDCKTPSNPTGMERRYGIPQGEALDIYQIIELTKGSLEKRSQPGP
# T1 sequence (Q9UHN1 1-485 partner): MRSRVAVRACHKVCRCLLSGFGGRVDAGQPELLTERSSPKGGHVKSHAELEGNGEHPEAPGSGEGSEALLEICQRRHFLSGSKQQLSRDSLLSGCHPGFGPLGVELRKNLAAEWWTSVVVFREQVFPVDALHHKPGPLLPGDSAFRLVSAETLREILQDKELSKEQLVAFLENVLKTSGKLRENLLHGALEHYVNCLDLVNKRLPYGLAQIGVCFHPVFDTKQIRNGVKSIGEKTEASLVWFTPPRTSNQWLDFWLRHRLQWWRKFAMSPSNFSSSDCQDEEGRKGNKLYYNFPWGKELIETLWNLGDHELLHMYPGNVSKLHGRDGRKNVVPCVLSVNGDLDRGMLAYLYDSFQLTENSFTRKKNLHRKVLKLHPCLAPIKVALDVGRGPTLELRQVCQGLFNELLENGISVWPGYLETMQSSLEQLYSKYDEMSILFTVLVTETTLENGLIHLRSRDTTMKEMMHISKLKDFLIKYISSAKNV
# Assay: DNA polymerization assay, POLγA:G848S mutant
# Assay type: biochemical
# Settings: stimulation of polymerase activity, primed M13mp18 ssDNA, 37° C. 2 hours; read-out: G848S AC50
# Procedure: DNA Polymerization Assay to Monitor Effects on Human Wildtype POLγ and Four Disease-Causing Mutant Variants of Human POLγ.
# The ability of small molecules to stimulate the polymerase activity of POLγ was analyzed in a quantitative fluorescence SYBR Green I assay with fluorescence intensity (FI) readout.
# In the presence of dNTPs, wild type human POLγ and mutant derivatives thereof were incubated with single-stranded, circular M13mp18 ssDNA hybridized to a short DNA oligonucleotide that functions as a primer for initiation of DNA synthesis. POLγ and mutant derivatives thereof will extend the primer and use the M13mp18 molecule as a template to synthesize long stretches of double-stranded DNA. SYBR Green I, which is a double-stranded DNA-binding dye, was used to quantify formation of double-stranded DNA in the reaction. When bound to double-stranded DNA, SYBR Green I fluorescence increases by up to 100-fold.
# The assay was performed in the 384-well plate format. Upon addition of compounds, changes in double-stranded DNA synthesis activity can be monitored by following effects on fluorescent intensity.
# The reactions also contained the accessory POLγB subunit, and the human mitochondrial single-stranded DNA binding protein (mtSSB).
# The DNA template mixture used in the assay contained 0.5 nM primed M13 mp18 ssDNA, 400 nM mtSSB, 0.1 mM Tris-HCl (pH 8.0), 0.1 mM dNTP, 10 mM MgCl2, 0.1 mg/mL BSA, 1 mM TCEP solution, and 0.02% Triton X-100. The DNA template mixture for the wild type protein contained either 100 μM dNTP, 1 μM dNTP, or 0.1 μM dNTP, designated in Table 2 as 100 μM, 1 μM, and 0.1 μM, respectfully.
# Microplates with compounds (0.1 μL in each well) to be tested in the assay were prepared from 10 mM compound stocks in 100% DMSO, and equal amounts of DMSO without any compound were added to positive and negative control wells.
# The protein mixture was dispensed (5 μL into each well) into compound plates and incubated at 37° C. for 15 minutes. After incubation, 5 μL of the DNA template mixture was dispensed into each well. The plates were then incubated at 37° C. for 2 hours.
# During incubation, a combined stop buffer and detection reagent solution was prepared. The buffer contained 25 mM EDTA (pH 8.0), 0.02% Triton X-100, and SYBR Green I [Invitrogen] diluted 10,000× (for fluorescent readout). EDTA will stop the enzymatic reaction by chelating magnesium ions.
row,AC50 [µM],SMILES
1,16,"Cc1cc(S(=O)(=O)Nc2cccc(C(=O)N(C)C(C)CO)c2)c(C)cc1Cl (single isomer, unassigned) [Example 14, 3-((4-chloro-2,5-dimethylphenyl)sulfonamido)-N-(1-hydroxypropan-2-yl)-N-methylbenzamide]"
2,6,"Cc1cc(S(=O)(=O)Nc2cccc(C(=O)N3CCCC[C@H]3C)c2)c(C)cc1Cl [Example 9, (R)-4-chloro-2,5-dimethyl-N-(3-(2-methylpiperidine-1-carbonyl)phenyl)benzenesulfonamide]"
3,3,"Cc1cc(S(=O)(=O)Nc2cccc(C(=O)N3CCC[C@H]3C)c2)c(C)cc1Cl [Example 10, (R)-4-chloro-2,5-dimethyl-N-(3-(2-methylpyrrolidine-1-carbonyl)phenyl)benzenesulfonamide]"
4,34,"Cc1cc(S(=O)(=O)Nc2cccc(C(=O)NCc3ccccc3)c2)c(C)cc1Cl [Example 11, N-benzyl-3-((4-chloro-2,5-dimethylphenyl)sulfonamido)benzamide]"
5,26,"Cc1cc(S(=O)(=O)Nc2cccc(C(=O)N(C)C)c2)c(C)cc1Cl [Example 12, 3-((4-chloro-2,5-dimethylphenyl)sulfonamido)-N,N-dimethylbenzamide]"
6,8,"Cc1cc(S(=O)(=O)Nc2cccc(-c3ccn(C)n3)c2)c(C)cc1Cl [Example 18, 4-chloro-2,5-dimethyl-N-(3-(1-methyl-1H-pyrazol-3-yl)phenyl)benzenesulfonamide]"
7,3,"Cc1cc(S(=O)(=O)Nc2cccc(-c3nccn3C)c2)c(C)cc1Cl [Example 19, 4-chloro-2,5-dimethyl-N-(3-(1-methyl-1H-imidazol-2-yl)phenyl)benzenesulfonamide]"
8,1,"Cc1cc(S(=O)(=O)Nc2cccc(-c3ncc(C(N)=O)s3)c2)c(C)cc1Cl [Example 92, 2-(3-((4-chloro-2,5-dimethylphenyl)sulfonamido)phenyl) thiazole-5-carboxamide]"
9,9,"CNC(=O)c1cnc(-c2cccc(NS(=O)(=O)c3cc(C)c(Cl)cc3C)c2)s1 [Example 93, 2-(3-((4-chloro-2,5-dimethylphenyl)sulfonamido)phenyl)-N-methylthiazole-5-carboxamide]"
10,> 100,"Cc1cc(S(=O)(=O)Nc2cccc(-c3ncc(C(=O)N(C)C)s3)c2)c(C)cc1Cl [Example 94, 2-(3-((4-chloro-2,5-dimethylphenyl)sulfonamido)phenyl)-N,N-dimethylthiazole-5-carboxamide]"

# More lines, now with the values behind:
row,SMILES,AC50 [µM]
1,"Cc1ccc(C)c(S(=O)(=O)Nc2cccc(C(=O)N3CCCCC3)c2)c1 [Example 3, 2,5-dimethyl-N-(3-(piperidine-1-carbonyl)phenyl)benzene sulfonamide]",31
2,"Cc1ccc(C)c(S(=O)(=O)Nc2cccc(C(=O)NCC3CC3)c2)c1 [Example 4, N-(cyclopropylmethyl)-3-((2,5-dimethylphenyl)sulfonamido)benzamide]",33
3,"Cc1ccc(C)c(S(=O)(=O)Nc2cccc(C(=O)N3CCCC[C@@H]3C)c2)c1 [Example 6, (S)-2,5-dimethyl-N-(3-(2-methylpiperidine-1-carbonyl)phenyl)benzenesulfonamide]",30
4,"Cc1ccc(C)c(S(=O)(=O)Nc2cccc(C(=O)N3CCOCC3C#N)c2)c1 (stereo not drawn) [Example 7, N-(3-(3-cyanomorpholine-4-carbonyl)phenyl)-2,5-dimethylbenzenesulfonamide]",13
5,"Cc1ccc(C)c(S(=O)(=O)Nc2cccc(C(=O)N[C@@H](C)C3CC3)c2)c1 [Example 8, (S)-N-(1-cyclopropylethyl)-3-((2,5-dimethylphenyl)sulfonamido)benzamide]",23
6,"Cc1cc(S(=O)(=O)Nc2cccc(-c3nccs3)c2)c(C)cc1Cl [Example 16, 4-chloro-2,5-dimethyl-N-(3-(thiazol-2-yl)phenyl)benzenesulfonamide]",2
7,"Cc1cc(S(=O)(=O)Nc2cccc(-c3ncco3)c2)c(C)cc1Cl [Example 17, 4-chloro-2,5-dimethyl-N-(3-(oxazol-2-yl)phenyl)benzenesulfonamide]",6
8,"Cc1cc(S(=O)(=O)N[C@H]2CCCN(C(=O)[C@H]3CCCN3C)C2)c(C)cc1Cl [Example 95, 4-chloro-2,5-dimethyl-N-((S)-1-(methyl-D-prolyl)piperidin-3-yl)benzenesulfonamide]",> 100
9,"Cc1cc(S(=O)(=O)Nc2cccc(-c3ncc(C#N)s3)c2)c(C)cc1Cl [Example 96, 4-chloro-N-(3-(5-cyanothiazol-2-yl)phenyl)-2,5-dimethylbenzenesulfonamide]",4
10,"Cc1cc(S(=O)(=O)Nc2cccc(-c3ncc(-c4nnn[nH]4)s3)c2)c(C)cc1Cl [Example 97, N-(3-(5-(1H-tetrazol-5-yl)thiazol-2-yl)phenyl)-4-chloro-2,5-dimethylbenzenesulfonamide]",> 100
11,"Cc1cnc(-c2ccc(C)c(NS(=O)(=O)c3cc(C)c(Cl)cc3C)c2)s1 [Example 98, 4-chloro-2,5-dimethyl-N-(2-methyl-5-(5-methylthiazol-2-yl)phenyl)benzenesulfonamide]",9
12,"Cc1nc2c(NS(=O)(=O)c3cc(C)c(Cl)cc3C)cccc2s1 [Example 99, 4-chloro-2,5-dimethyl-N-(2-methylbenzo[d]thiazol-4-yl)benzenesulfonamide]",> 100
13,"Cc1cc(S(=O)(=O)N[C@@H]2CCCN(C(=O)[C@H]3CCCN3C)C2)c(C)cc1Cl [Example 100, 4-chloro-2,5-dimethyl-N-((R)-1-(methyl-D-prolyl)piperidin-3-yl)benzenesulfonamide]",> 100
14,"Cc1cc(S(=O)(=O)N[C@H]2CCCN(C(=O)[C@@H]3CCCN3C)C2)c(C)cc1Cl [Example 101, 4-chloro-2,5-dimethyl-N-((S)-1-(methyl-L-prolyl)piperidin-3-yl)benzenesulfonamide]",> 100
